Values quoted from earlier work, collected in US6783772B1, “Pharmaceutical preparations containing alendronate sodium” (priority 2003, dated 2004).

What was measured:
bone resorption [1] = conditions: postmenopausal women; 5, 20 and 40 mg daily oral for six weeks
bone resorption [2] = conditions: 40 mg once daily for six months

Structure (SMILES): NCCCC(O)(P(=O)([O-])O)P(=O)(O)O.O.O.O.[Na+] [Alendronate sodium, (4-amino-1-hydroxybutylidene) bisphosphonic acid monosodium salt trihydrate]
- biochemical changes (urinary calcium, urinary markers of bone collagen degradation) (bone resorption [1]): dose-dependent inhibition of bone resorption
- serum alkaline phosphotase and urinary markers of bone collagen degradation (bone resorption [2]): highly significant decreases
- serum calcium phosphate (bone resorption [2]; clinical trials): generally mild, transient, decreases
